According to PubChem BioAssay AID1259411 (Chemical Carcinogenesis Research Information System (CCRIS), 2018):
Activity calls are given as the source filed them. No rule for the calls is given here.

System: rodent carcinogenicity bioassays, tumor incidence
Assay: CCRIS carcinogenicity studies
Settings: Dose: 0, Dose: 0
Summary of the method: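 Archive of carcinogenicity, mutagenicity, tumor promotion and tumor inhibition results drawn from journals, NCI reports and other sources, expert-reviewed; covers 1985-2011 and is no longer updated.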

Q: For `O=P(OCCCl)(OCCCl)OCCCl`, which carcinogen call (Species: MOUSE, Strain/Sex: B6C3F1/FEMALE, Route: GAVAGE, 175, 350 MG/KG IN CORN OIL 5 D/WK FOR 103 (STUDY DURATION: 104 WK), 175, 350 MG/KG IN CORN OIL 5 D/WK FOR 103 (STUDY DURATION: 104 WK), Tumor Site: Type of Lesion: HARDERIAN GLAND: ADENOMA OR CARCINOMA) is on record?
A: equivocal

Q: What about the carcinogen call (Species: MOUSE, Strain/Sex: B6C3F1/MALE, Route: GAVAGE, 175, 350 MG/KG IN CORN OIL 5 D/WK FOR 103 (STUDY DURATION: 104 WK), 175, 350 MG/KG IN CORN OIL 5 D/WK FOR 103 (STUDY DURATION: 104 WK), Tumor Site: Type of Lesion: KIDNEY (RENAL TUBULE): ADENOMA, CARCINOMA) of the same molecule?
A: equivocal

Q: What about the carcinogen call (Species: MOUSE, Strain/Sex: DDY/FEMALE, Route: ORAL, 0.012, 0.06, 0.3, 1.5% IN DIET FOR 18 MO (STUDY DURATION: 18 MO), 0.012, 0.06, 0.3, 1.5% IN DIET FOR 18 MO (STUDY DURATION: 18 MO), Tumor Site: Type of Lesion: HEMATOPOIETIC SYSTEM: LEUKEMIA, FORESTOMACH: PAPILLOMA, CARCINOMA) of the same molecule?
A: active; positive

Q: What about the carcinogen call (Species: MOUSE, Strain/Sex: DDY/MALE, Route: ORAL, 0.012, 0.06, 0.3, 1.5% IN DIET FOR 18 MO (STUDY DURATION: 18 MO), 0.012, 0.06, 0.3, 1.5% IN DIET FOR 18 MO (STUDY DURATION: 18 MO), Tumor Site: Type of Lesion: LIVER: HEPATOCELLULAR ADENOMA, HEPATOCELLULAR CARCINOMA, KIDNEY: RENAL CELL ADENOMA, RENAL CELL CARCINOMA) of the same molecule?
A: active; positive

Q: And the carcinogen call (Species: MOUSE, Strain/Sex: SLC:DDY/FEMALE, Route: DERMAL, 5, 50% IN ETHANOL 2/WK FOR 79 WK (STUDY DURATION: 18 MO), 5, 50% IN ETHANOL 2/WK FOR 79 WK (STUDY DURATION: 18 MO))?
A: inactive; negative

Q: What about the carcinogen call (Species: RAT, Strain/Sex: F344/FEMALE, Route: GAVAGE, 44, 88 MG/KG IN CORN OIL 5 D/WK FOR 103 (STUDY DURATION: 104 WK), 44, 88 MG/KG IN CORN OIL 5 D/WK FOR 103 (STUDY DURATION: 104 WK), Tumor Site: Type of Lesion: KIDNEY (RENAL TUBULE): ADENOMA) of the same molecule?
A: active; positive

Q: What about the carcinogen call (Species: RAT, Strain/Sex: F344/MALE, Route: GAVAGE, 44, 88 MG/KG IN CORN OIL 5 D/WK FOR 103 (STUDY DURATION: 104 WK), 44, 88 MG/KG IN CORN OIL 5 D/WK FOR 103 (STUDY DURATION: 104 WK), Tumor Site: Type of Lesion: KIDNEY (RENAL TUBULE): ADENOMA OR CARCINOMA, HEMATOPOIETIC SYSTEM: LEUKEMIA (MONONUCLEAR)) of the same molecule?
A: active; positive

Q: For `CCN(N=O)C(=O)NCCO`, which carcinogen call (Species: RAT, Strain/Sex: F344/FEMALE, Route: INTRAVESICULAR, 3.6 MG 2/WK FOR 30 WK (STUDY DURATION: LIFETIME), Tumor Site: Type of Lesion: BLADDER: TUMOR, BRAIN: TUMOR) is on record?
A: active; positive

Q: What about the carcinogen call (Species: RAT, Strain/Sex: F344/FEMALE, Route: ORAL, 37, 74 MG/L IN DRINKING WATER 5 D/WK FOR 30 WK (STUDY DURATION: LIFETIME), 37, 74 MG/L IN DRINKING WATER 5 D/WK FOR 30 WK (STUDY DURATION: LIFETIME), Tumor Site: Type of Lesion: BLADDER: TUMOR, MAMMARY GLAND: TUMOR, UTERUS: TUMOR, NERVOUS SYSTEM: TUMOR, SKIN: TUMOR, MOUTH: TUMOR, Tumor Site: Type of Lesion: BLADDER: TUMOR, MAMMARY GLAND: TUMOR, UTERUS: TUMOR, NERVOUS SYSTEM: TUMOR, SKIN: TUMOR, MOUTH: TUMOR) of the same molecule?
A: active; positive

Q: What about the carcinogen call (Species: RAT, Strain/Sex: F344/MALE, Route: GAVAGE, 3.6 MG IN 0.2 ML ETHYL ACETATE/CORN OIL (1:1) 2/WK FOR 31 WK (TOTAL DOSE: 223 MG) (STUDY DURATION: 80 WK), Tumor Site: Type of Lesion: LUNG: CARCINOMA, ADENOMA, BRAIN: TUMORS, THYROID: CARCINOMA OR ADENOMA, PERITONEUM: MESOTHELIOMA, ZYMBAL GLAND: CARCINOM, Tumor Site: Type of Lesion: LUNG: CARCINOMA, ADENOMA, BRAIN: TUMORS, THYROID: CARCINOMA OR ADENOMA, PERITONEUM: MESOTHELIOMA, ZYMBAL GLAND: CARCINOM) of the same molecule?
A: active; positive

Q: What about the carcinogen call (Species: RAT, Strain/Sex: F344/MALE, Route: ORAL, 37, 74 MG/L IN DRINKING WATER 5 D/WK FOR 30 WK (STUDY DURATION: LIFETIME), 37, 74 MG/L IN DRINKING WATER 5 D/WK FOR 30 WK (STUDY DURATION: LIFETIME), Tumor Site: Type of Lesion: LUNG: TUMOR, BLADDER: TUMOR, MESOTHELIUM: TUMOR, NERVOUS SYSTEM: TUMOR, SKIN: TUMOR, Tumor Site: Type of Lesion: LUNG: TUMOR, BLADDER: TUMOR, MESOTHELIUM: TUMOR, NERVOUS SYSTEM: TUMOR, SKIN: TUMOR) of the same molecule?
A: active; positive

Q: Which carcinogen call (Species: MOUSE, Strain/Sex: B6C3F1/FEMALE, Route: GAVAGE, 12, 25 MG/KG IN CORN OIL FOR 103 WK (STUDY DURATION: 103 WK), 12, 25 MG/KG IN CORN OIL FOR 103 WK (STUDY DURATION: 103 WK)) does the source give for `C=CCN=C=S` here?
A: inactive; negative

Q: And the carcinogen call (Species: MOUSE, Strain/Sex: B6C3F1/MALE, Route: GAVAGE, 12, 25 MG/KG IN CORN OIL FOR 103 WK (STUDY DURATION: 103 WK), 12, 25 MG/KG IN CORN OIL FOR 103 WK (STUDY DURATION: 103 WK))?
A: inactive; negative

Q: What about the carcinogen call (Species: RAT, Strain/Sex: F344/FEMALE, Route: GAVAGE, 12, 25 MG/KG IN CORN OIL FOR 103 WK (STUDY DURATION: 103 WK), 12, 25 MG/KG IN CORN OIL FOR 103 WK (STUDY DURATION: 103 WK), Tumor Site: Type of Lesion: INTEGUMENTARY SYSTEM (SUBCUTANEOUS TISSUE): FIBROSARCOMA) of the same molecule?
A: equivocal

Q: And the carcinogen call (Species: RAT, Strain/Sex: F344/MALE, Route: GAVAGE, 12, 25 MG/KG IN CORN OIL FOR 103 WK (STUDY DURATION: 103 WK), 12, 25 MG/KG IN CORN OIL FOR 103 WK (STUDY DURATION: 103 WK), Tumor Site: Type of Lesion: URINARY BLADDER: TRANSITIONAL CELL PAPILLOMA)?
A: active; positive

Q: Which carcinogen call (Species: RAT, Strain/Sex: OSBORNE-MENDEL/FEMALE, Route: LUNG IMPLANT, 0.2, 1.0, 5.0 MG IN BEESWAX/TRICAPRYLIN (STUDY DURATION: LIFETIME), 0.2, 1.0, 5.0 MG IN BEESWAX/TRICAPRYLIN (STUDY DURATION: LIFETIME)) does the source give for `c1ccc2nc3ccc4ccccc4c3cc2c1` here?
A: inactive; negative

Q: With `CN(C)c1ccc(C(c2ccccc2)c2ccc(N(C)C)cc2)cc1` as the molecule, how does the carcinogen call (Species: MOUSE, Strain/Sex: B6C3F1/FEMALE, Route: ORAL (DIET), 91, 204, 408 PPM IN DIET FOR 2 YRS, 91, 204, 408 PPM IN DIET FOR 2 YRS, Tumor Site: Type of Lesion: LIVER: HEPATOCELLULAR ADENOMA OR CARCINOMA) read?
A: active; positive; incidence of tumors was statistically significant

Q: And the carcinogen call (Species: RAT, Strain/Sex: F344/N/FEMALE, Route: DIET, 91, 272, 543 PPM IN DIET FOR 2 YRS, 91, 272, 543 PPM IN DIET FOR 2 YRS, Tumor Site: Type of Lesion: LIVER: HEPATOCELLULAR ADENOMA, THYROID: FOLLICULAR CELL ADENOMA OR CARCINOMA)?
A: equivocal; none of the tumor incidences reached statistical significance; for th

Q: What about the carcinogen call (Species: RAT, Strain/Sex: F344/N/MALE, Route: ORAL (DIET), 91, 272, 543 PPM IN DIET FOR 2 YRS, 91, 272, 543 PPM IN DIET FOR 2 YRS, Tumor Site: Type of Lesion: TESTIS: INTERSTITIAL CELL ADENOMA, THYROID: FOLLICULAR CELL ADENOMA OR CARCINOMA) of the same molecule?
A: equivocal; thyroid tumors did not reach statistical significance
